Here are results for 21 compounds from patent publication US11377451B2, “Compositions and methods for treating cancer” (The Regents of the University of California, priority 2019, dated 2022).

Structures are written as SMILES.

One assay has as its system HK301. Briefly: GI50 assay (Cell Titer Glo proliferation, 3 days). The format is cell-based, human. Conditions: Homo sapiens, 72 h; HK301, 3 days; read-out: HK301 GI50.
The next assay has as its system GBM39. Briefly: GI50 assay (Cell Titer Glo proliferation, 3 days). To be noted: Homo sapiens, 72 h; GBM39, 3 days. The class given is cell-based, human. A general note: Cellular ATP, detected with luciferase, serves as a proxy for viable cell number.

In the case of `COC(=O)[C@@H](Cc1ccc(Nc2ncnc3cc4c(cc23)OCCO4)cc1)NC(=O)OC(C)(C)C` [JGK014], the values for the GI50 in the assay with HK301 and in the assay with GBM39 were 11.8 µM and 27.9 µM, respectively.
Taken in the same sequence, the figures for `COC(=O)[C@H](Cc1ccc(Nc2ncnc3cc4c(cc23)OCCO4)cc1)NC(=O)OC(C)(C)C` [JGK015] were 2.15 µM and 11.5 µM.
As to `COC(=O)[C@@H](N)Cc1ccc(Nc2ncnc3cc4c(cc23)OCCO4)cc1` [JGK016], the GI50 with HK301 worked out at 4.05 µM; in the assay with GBM39 it was 61.6 µM.
Turning to `FC(F)(F)c1c(Cl)cccc1Nc1ncnc2cc3c(cc12)OCCO3` [JGK017], the concentration for 50% growth inhibition (GI50) in the assay on HK301 came out at 64.2 µM; with GBM39, 97.6 µM.
Taken in the same sequence, the figures for `COc1cc2ncnc(Nc3cccc(Cl)c3F)c2cc1OC(C)=O` [JGK018] were 1.07 µM and 4.54 µM.
Take `COC(=O)[C@H](Cc1ccc(Nc2ncnc3cc(O)c(O)cc23)cc1)NC(=O)OC(C)(C)C` [JGK020]: the GI50 in the assay with HK301 amounted to 29.2 µM; with GBM39 it was 36.2 µM.
Taken in the same sequence, the figures for `N[C@H](Cc1ccc(Nc2ncnc3cc4c(cc23)OCCO4)cc1)C(=O)O` [JGK021] were 481 µM and 556 µM.
On to `Oc1cc2ncnc(Nc3cccc(Cl)c3F)c2cc1O` [JGK022], for which the GI50 amounted to 31.1 µM in the assay with HK301 and 150 µM in the assay on GBM39.
Taken in the same sequence, the figures for `N[C@@H](Cc1ccc(Nc2ncnc3cc4c(cc23)OCCO4)cc1)C(=O)O` [JGK023] were 86.2 µM and 96.3 µM.
Consider `COC(=O)[C@H](Cc1ccc(NC(=O)COc2cc3c(Nc4cccc(Cl)c4F)ncnc3cc2OC)cc1)NC(=O)OC(C)(C)C` [JGK024], for which the GI50 turned out to be 156 µM with HK301 and 125 µM in the assay on GBM39.
Taken in the same sequence, the figures for `Fc1ccc(Nc2ncnc3cc4c(cc23)OCCO4)c(F)c1` [JGK025] were 10.7 µM and 27.7 µM.
On to `Fc1ccc(F)c(Nc2ncnc3cc4c(cc23)OCCO4)c1` [JGK026], for which the GI50 came out at 6.12 µM in the assay with HK301 and 16.5 µM with GBM39.
Take `Fc1cccc(F)c1Nc1ncnc2cc3c(cc12)OCCO3` [JGK027]: the GI50 was 5.81 µM in the assay on HK301 and 11.8 µM in the assay with GBM39.
For the compound `Fc1cc(F)c(Nc2ncnc3cc4c(cc23)OCCO4)c(F)c1` [JGK029], the GI50 came to 24.4 µM in the assay with HK301 and 34 µM with GBM39.
Taken in the same sequence, the figures for `Fc1c(F)c(F)c(Nc2ncnc3cc4c(cc23)OCCO4)c(F)c1F` [JGK030] were 559 µM and 961 µM.
Take `Fc1ccccc1Nc1ncnc2cc3c(cc12)OCCO3` [JGK035, N-(2-Fluorophenyl)-7,8-dihydro[1,4]dioxino[2,3-g]quinazolin-4-amine]: the figures for the GI50 in the assay with HK301 and in the assay on GBM39 were 4.04 µM and 10.7 µM, respectively.
For the compound `[2H]C1([2H])Oc2cc3ncnc(Nc4cccc(Cl)c4F)c3cc2OC1([2H])[2H]` [JGK036, N-(3-Chloro-2-fluorophenyl)(7,7,8,8-^2H4)-7,8-dihydro[1,4]dioxino[2,3-g]quinazolin-4-amine], the GI50 in the assay with HK301 was found to be 1.05 µM; in the assay on GBM39, 4.51 µM.
As for `Fc1c(Nc2ncnc3cc4c(cc23)OCCO4)cccc1C(F)(F)F` [JGK039, N-[2-Fluoro-3-(trifluoromethyl)phenyl]-7,8-dihydro[1,4]dioxino[2,3-g]quinazolin-4-amine], the results for the concentration for 50% growth inhibition (GI50) with HK301 and in the assay with GBM39 were 3.61 µM and 7.82 µM, respectively.
Take `Fc1c(Cl)cccc1Nc1ncnc2cc3c(cc12)OCCCO3` [JGK040, N-(3-Chloro-2-fluorophenyl)-8,9-dihydro-7H-[1,4]dioxepino[2,3-g]quinazolin-4-amine]: the concentration for 50% growth inhibition (GI50) stood at 1.72 µM in the assay on HK301 and 7.12 µM with GBM39.
Taken in the same sequence, the figures for `Fc1c(Cl)cccc1Nc1ncnc2cc3c(cc12)OCO3` [JGK041, N-(3-Chloro-2-fluorophenyl)-2H-[1,3]dioxolo[4,5-g]quinazolin-8-amine] were 1.66 µM and 6.04 µM.
Taken in the same sequence, the figures for `CC(=O)OCN(c1cccc(Cl)c1F)c1ncnc2cc3c(cc12)OCCO3` [JGK043, [(3-Chloro-2-fluorophenyl)(7,8-dihydro[1,4]dioxino[2,3-g]quinazolin-4-yl)amino]methyl acetate] were 0.745 µM and 1.78 µM.

What is called GI50 is the concentration giving 50% growth inhibition.
